In ChEMBL document CHEMBL1201862, “PubChem BioAssay data set” (2004):
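1) Cells in 96-well plates. 2) Compound, 48 h, 5 concentrations. 3) Linear interpolation between surrounding doses. 4) Unreached endpoint = highest concentration. GI50 = concentration required for 50% inhibition of growth.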 Active and inactive are the calls of the source. Rule as the data show it: active = GI50 up to about 1.1 µM and inactive = higher.

How the values were obtained:
Experiment in all cases: NCI anticancer screen, dose series, 48 h
786-0 = system: 786-0
A498 = system: A498
A549 = system: A549
ACHN = system: ACHN
CAKI-1 = system: CAKI-1
CCRF-CEM = system: CCRF-CEM
COLO 205 = system: COLO 205
DLD-1 = system: DLD-1
DMS-114 = system: DMS-114
DMS-273 = system: DMS-273
EKVX = system: EKVX
HCC 2998 = system: HCC 2998
HCT-116 = system: HCT-116
HCT-15 = system: HCT-15
HL-60 = system: HL-60
HOP-18 = system: HOP-18
HOP-62 = system: HOP-62
IGROV-1 = system: IGROV-1
K562 = system: K562
KM-20L2 = system: KM-20L2
KM12 = system: KM12
LXFL 529 = system: LXFL 529
M14 = system: M14
M19-MEL = system: M19-MEL
MOLT-4 = system: MOLT-4
Malme-3M = system: Malme-3M
NCI-H226 = system: NCI-H226
NCI-H460 = system: NCI-H460
NCI-H522 = system: NCI-H522
OVCAR-3 = system: OVCAR-3
OVCAR-4 = system: OVCAR-4
OVCAR-8 = system: OVCAR-8
RPMI-8226 = system: RPMI-8226
RXF 393 = system: RXF 393
RXF 631 = system: RXF 631
SF-268 = system: SF-268
SF-539 = system: SF-539
SK-MEL-28 = system: SK-MEL-28
SK-MEL-2 = system: SK-MEL-2
SK-MEL-5 = system: SK-MEL-5
SK-OV-3 = system: SK-OV-3
SN12C = system: SN12C
SNB-19 = system: SNB-19
SNB-75 = system: SNB-75
SNB-78 = system: SNB-78
SR = system: SR
SW-620 = system: SW-620
TK-10 = system: TK-10
U-251 = system: U-251
UACC-257 = system: UACC-257
UACC-62 = system: UACC-62
UO-31 = system: UO-31
HOP-92 = system: HOP-92
HT-29 = system: HT-29
LOX IMVI = system: LOX IMVI
NCI-H23 = system: NCI-H23
OVCAR-5 = system: OVCAR-5
SF-295 = system: SF-295
XF498 = system: XF498

Which GI50 (786-0) does the source give for `O=C1CCCCC12CCC/C2=N\O` (stereo not given) here?
The GI50 was > 100 µM (inactive).

And the GI50 (A498)?
Its GI50 is > 100 µM (inactive).

What about the GI50 (A549) of the same compound?
Its GI50 is > 100 µM (inactive).

What about the GI50 (ACHN) of the same compound?
The GI50 was > 100 µM (inactive).

And the GI50 (CAKI-1)?
The GI50 was > 100 µM (inactive).

What about the GI50 (CCRF-CEM) of the same compound?
The GI50 was > 100 µM (inactive).

What about the GI50 (COLO 205) of the same compound?
Its GI50 is > 100 µM (inactive).

And the GI50 (DLD-1)?
Its GI50 is > 100 µM (inactive).

What about the GI50 (DMS-114) of the same compound?
Its GI50 is > 100 µM (inactive).

And the GI50 (DMS-273)?
The GI50 was > 100 µM (inactive).

What about the GI50 (EKVX) of the same compound?
Its GI50 is > 100 µM (inactive).

And the GI50 (HCC 2998)?
The GI50 was > 100 µM (inactive).

What about the GI50 (HCT-116) of the same compound?
The GI50 was > 100 µM (inactive).

And the GI50 (HCT-15)?
The GI50 was > 100 µM.

And the GI50 (HL-60)?
Its GI50 is > 100 µM (inactive).

And the GI50 (HOP-18)?
The GI50 was > 100 µM (inactive).

And the GI50 (HOP-62)?
Its GI50 is > 100 µM (inactive).

And the GI50 (IGROV-1)?
The GI50 was > 100 µM (inactive).

And the GI50 (K562)?
The GI50 was > 100 µM (inactive).

What about the GI50 (KM-20L2) of the same compound?
Its GI50 is > 100 µM (inactive).

And the GI50 (KM12)?
The GI50 was > 100 µM (inactive).

And the GI50 (LXFL 529)?
Its GI50 is > 100 µM (inactive).

And the GI50 (M14)?
Its GI50 is > 100 µM (inactive).

What about the GI50 (M19-MEL) of the same compound?
Its GI50 is > 100 µM (inactive).

And the GI50 (MOLT-4)?
Its GI50 is > 100 µM (inactive).

What about the GI50 (Malme-3M) of the same compound?
The GI50 was > 100 µM (inactive).

What about the GI50 (NCI-H226) of the same compound?
Its GI50 is > 100 µM (inactive).

And the GI50 (NCI-H460)?
Its GI50 is > 100 µM (inactive).

What about the GI50 (NCI-H522) of the same compound?
Its GI50 is > 100 µM (inactive).

And the GI50 (OVCAR-3)?
The GI50 was > 100 µM (inactive).

What about the GI50 (OVCAR-4) of the same compound?
The GI50 was > 100 µM (inactive).

And the GI50 (OVCAR-8)?
Its GI50 is > 100 µM (inactive).

And the GI50 (RPMI-8226)?
Its GI50 is > 100 µM (inactive).

And the GI50 (RXF 393)?
Its GI50 is > 100 µM (inactive).

And the GI50 (RXF 631)?
The GI50 was > 100 µM (inactive).

And the GI50 (SF-268)?
Its GI50 is > 100 µM (inactive).

And the GI50 (SF-539)?
Its GI50 is > 100 µM (inactive).

And the GI50 (SK-MEL-28)?
The GI50 was > 100 µM (inactive).

What about the GI50 (SK-MEL-2) of the same compound?
The GI50 was > 100 µM (inactive).

And the GI50 (SK-MEL-5)?
Its GI50 is > 100 µM (inactive).

And the GI50 (SK-OV-3)?
Its GI50 is > 100 µM (inactive).

What about the GI50 (SN12C) of the same compound?
The GI50 was > 100 µM (inactive).

And the GI50 (SNB-19)?
The GI50 was > 100 µM (inactive).

What about the GI50 (SNB-75) of the same compound?
Its GI50 is > 100 µM (inactive).

What about the GI50 (SNB-78) of the same compound?
Its GI50 is > 100 µM (inactive).

And the GI50 (SR)?
Its GI50 is > 100 µM (inactive).

And the GI50 (SW-620)?
The GI50 was > 100 µM (inactive).

What about the GI50 (TK-10) of the same compound?
The GI50 was > 100 µM (inactive).

And the GI50 (U-251)?
The GI50 was > 100 µM (inactive).

What about the GI50 (UACC-257) of the same compound?
Its GI50 is > 100 µM (inactive).

And the GI50 (UACC-62)?
The GI50 was > 100 µM (inactive).

What about the GI50 (UO-31) of the same compound?
Its GI50 is > 100 µM (inactive).

Which results are given for `CC1=Nn2c(nnc2-c2ccc(N)cc2)NC(C)(C)C1`?
GI50 (786-0): > 100 µM (inactive); GI50 (A498): > 100 µM (inactive); GI50 (A549): > 100 µM (inactive); GI50 (ACHN): > 100 µM (inactive); GI50 (CAKI-1): > 100 µM (inactive); GI50 (CCRF-CEM): > 100 µM (inactive); GI50 (COLO 205): > 100 µM (inactive); GI50 (DLD-1): > 100 µM (inactive); GI50 (DMS-114): > 100 µM (inactive); GI50 (DMS-273): > 100 µM (inactive); GI50 (EKVX): > 100 µM (inactive); GI50 (HCC 2998): > 100 µM (inactive); GI50 (HCT-15): > 100 µM; GI50 (HL-60): > 100 µM (inactive); GI50 (HOP-18): > 100 µM (inactive); GI50 (HOP-62): > 100 µM (inactive); GI50 (HOP-92): > 100 µM (inactive); GI50 (HT-29): > 100 µM (inactive); GI50 (IGROV-1): > 100 µM (inactive); GI50 (K562): > 100 µM (inactive); GI50 (KM-20L2): > 100 µM (inactive); GI50 (KM12): > 100 µM (inactive); GI50 (LOX IMVI): > 100 µM (inactive); GI50 (LXFL 529): > 100 µM (inactive); GI50 (M14): > 100 µM (inactive); GI50 (M19-MEL): > 100 µM (inactive); GI50 (MOLT-4): > 100 µM (inactive); GI50 (Malme-3M): > 100 µM (inactive); GI50 (NCI-H226): > 100 µM (inactive); GI50 (NCI-H23): > 100 µM (inactive); GI50 (NCI-H460): > 100 µM (inactive); GI50 (NCI-H522): > 100 µM (inactive); GI50 (OVCAR-3): > 100 µM (inactive); GI50 (OVCAR-4): > 100 µM (inactive); GI50 (OVCAR-5): > 100 µM (inactive); GI50 (RPMI-8226): > 100 µM (inactive); GI50 (RXF 631): > 100 µM (inactive); GI50 (SF-268): > 100 µM (inactive); GI50 (SF-295): > 100 µM (inactive); GI50 (SF-539): > 100 µM (inactive); GI50 (SK-MEL-28): > 100 µM (inactive); GI50 (SK-MEL-2): > 100 µM (inactive); GI50 (SK-MEL-5): > 100 µM (inactive); GI50 (SK-OV-3): > 100 µM (inactive); GI50 (SNB-19): > 100 µM (inactive); GI50 (SNB-78): > 100 µM (inactive); GI50 (SW-620): > 100 µM (inactive); GI50 (TK-10): > 100 µM (inactive); GI50 (U-251): > 100 µM (inactive); GI50 (UACC-257): > 100 µM (inactive); GI50 (UACC-62): > 100 µM (inactive); GI50 (UO-31): > 100 µM (inactive); GI50 (XF498): > 100 µM (inactive)
